We go through five compounds from patent US20230032101A1, “FIVE-MEMBERED HETEROCYCLIC OXOCARBOXYLIC ACID COMPOUND AND MEDICAL USE THEREOF” (Shanghai Institute of Materia Medica, Chinese Academy of …, priority 2019, published 2023).

The target of assay [1] is human-derived STING (Homo sapiens, UniProt Q86WV6). The settings on record: cited from earlier work.
Assay [2] concerns type I interferon pathway (ISG) in human THP1-Blue-ISG cells. Description: Activation of type I interferon pathway (ISG) in human THP1-Blue-ISG cells (Quanti-Blue, OD650). Format: cell-based. The settings on record: Homo sapiens, THP1-Blue ISG; 10 μM, 24 h; Compound OD650/Control OD650; ≥2 times considered valid; read-out: Fold Change. As for the experimental part:
20 μL of compound diluted with physiological saline was added to each well of a 96-well cell culture plate, the positive control compound was ADU-S100, and the solvent control group was added with 20 μL of physiological saline containing DMSO. THP1-Blue-ISG cells were counted, the cell concentration was adjusted to 5×10^5/mL, and 180 μL of cells were added to each well for incubation. Therefore, the final volume of each test well was 200 μL, the content of DMSO was 0.1%/0.5%, the test concentration of the compound was 10/50 μM, and the positive control compound was ADU-S100 at a final concentration of 10 μM, and incubated for 24 hours for detection.
After 24 hours, 20 μL of the culture solution was took out from each well to a new 96-well plate, 180 μL of chromogenic solution Quanti-Blue was added, placed in a 37° C. incubator, and the OD650 value was measured after 0.5-2 hours. The experiment was repeated twice.
The experimental results were used to evaluate the ability of compounds to induce the secretion of type I interferon pathway (ISG) by the Fold Change, which was calculated as follows:
Fold Change=Compound OD650/Control OD650, wherein the results of ≥2 times were considered valid.

The test system of assay [3] is type I interferon pathway in murine Raw-lucia cells. Description: Activation of type I interferon pathway in murine Raw-lucia cells (QUANTI-Luc luminescence). It is filed as cell-based. The settings on record: Mus musculus, 24 h, Compound Luminescence/Control Luminescence, ≥2 times considered valid, read-out: Fold Change. As for the experimental part:
Raw-lucia cells were counted, the cell concentration was adjusted to 5×10^5/mL, and 180 μL of cells were added to each well for incubation. 20 μL of compound diluted with physiological saline was added to each well of a 96-well cell culture plate after cells were adhered, the concentration of the compound was 50 μM/100 μM.
After 24 hours, 20 μL of the culture medium was took out from each well to a new 96-well plate with bottom-transmitting, 50 μL of the luciferase detection reagent QUANTI-Luc™ was added, and the […] was measured immediately (in the dark). The experiment was repeated twice.

For assay [4], the system named is 4T1 mouse breast cancer cells. Kind of assay: 4T1 breast cancer orthotopic tumor model in vivo. The settings on record: Balb/C mice, intratumoral injection (IT), days 1/2/3/4/7; FIG. 1. As for the experimental part:
6-8 week old Balb/C mice were inoculated with 2.5×10^5 4T1 mouse breast cancer cells in the mammary fat pad of each mouse. When the tumor volume grew to about 100 mm^3, the mice were randomly divided into 5 groups, 6 mice in each group.
(§1) Experimental results were evaluated in the form of tumor volume growth curves.

The test system of assay [5] is CT26 mouse colon cancer cells. Kind of assay: CT26 colon cancer subcutaneous xenograft model in vivo. The settings on record: Balb/C mice, intratumoral injection (IT), days 1/2/3/4/7; FIG. 2. As for the experimental part: […] When the tumor volume grew to about 100 mm^3, the mice were randomly divided into 5 groups, 6 mice in each group.
as §1

In assay [6] the test system is type I interferon pathway (ISG) in human THP1-Blue-ISG cells. Description: Activation of type I interferon pathway (ISG) in human THP1-Blue-ISG cells (Quanti-Blue, OD650). It is filed as cell-based. The settings on record: 30 μM, 24 h, Compound OD650/Control OD650, ≥2 times considered valid, read-out: Fold Change.

Chain of human-derived STING (Q86WV6 whole entry H232R): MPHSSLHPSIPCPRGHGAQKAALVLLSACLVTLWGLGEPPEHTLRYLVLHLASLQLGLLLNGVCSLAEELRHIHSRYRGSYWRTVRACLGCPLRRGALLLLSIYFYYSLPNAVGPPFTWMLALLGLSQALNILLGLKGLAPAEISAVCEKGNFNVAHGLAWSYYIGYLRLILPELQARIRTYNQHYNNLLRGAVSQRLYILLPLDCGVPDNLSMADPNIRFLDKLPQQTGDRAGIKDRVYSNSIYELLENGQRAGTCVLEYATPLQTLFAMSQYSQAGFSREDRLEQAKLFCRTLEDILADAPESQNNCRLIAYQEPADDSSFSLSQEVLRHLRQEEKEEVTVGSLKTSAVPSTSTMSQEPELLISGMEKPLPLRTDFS

`Cc1ccc2c(=O)c3cccc(CC(=O)O)c3oc2c1C` [DMXAA]: the “agonistic effect on STING” value in assay [1] is given as “ineffective”.

As for `O=C(O)CCC(=O)c1cc(-c2c[nH]c3ccccc23)cs1` [I′-31, 4-(4-(1H-indol-3-yl)thiophen-2-yl)-4-oxobutyric Acid], in assay [2], the fold induction at 10 µM stood at 13.8. Besides, in assay [3], the fold induction at 50 µM turned out to be 21.8. Further, in assay [4], the “anti-tumor effect (tumor volume growth curves)” value is recorded as “significant anti-tumor effect” and the tumor regression entry is on record as “tumor regression effect is achieved in some mouse tumor models”. In assay [5], the “anti-tumor effect (tumor volume growth curves)” value is “significant anti-tumor effect” and the tumor regression entry was “tumor regression effect is achieved in some mouse tumor models”.

With `O=C(O)CCC(=O)c1cc(-c2c[nH]c3ccc(F)cc23)cs1` [I′-48, 4-(4-(5-fluoro-1H-indol-3-yl)thiophen-2-yl)-4-oxobutyric Acid], the fold induction at 100 µM in assay [3] (100 μM) is 7.63. The fold induction at 30 µM in assay [6] turned out to be 14.7.

As for `O=C(O)CCC(=O)c1cc(-c2coc3c(F)cccc23)cs1` [I′-55, 4-(4-(7-fluorobenzofuran-3-yl)thiophen-2-yl)-4-oxobutyric Acid], in assay [3], the fold induction at 50 µM was 12.2. Besides, in assay [6], the fold induction at 30 µM was 16.

As for `O=C(O)CCC(=O)c1scc(-c2c[nH]c3ccccc23)c1F` [I′-56, 4-(3-fluoro-4-(1H-indol-3-yl)thiophen-2-yl)-4-oxobutyric Acid], in assay [3], the fold induction at 50 µM was determined as 12.9. For the same compound, the fold induction at 30 µM in assay [6] is 14.9.
